The values that follow come from patent US8557225B2, “Solution and method for cleaning tooth enamel” (priority 2008, dated 2013).

A short description of assay [1]: citric acid solution applied over the enamel. Format: in vivo. The settings on record: 6% citric acid in the improved solution, over the teeth enamel. An excerpt: Citric acid as incorporated in the present disclosure is an irrigating substance classified as a chelating agent which, due to its low pH, reacts with the metallic ions in the hydroxyapatite crystals in order to produce a metallic chelating agent which reacts with the chelating agent's terminal groups when removing calcium ions of the dentine, forming a ring. The dentine softens changing the solubility and permeability aspects of the tissue, especially the peritubular dentine, rich in hydroxyapatite, increasing the diameter of the exposed dental tubes. These chelating agent properties also provide a great affinity as thus used due to ferrous alkali characteristics of the dental structure. Also, this chelating agent is naturally found inside the body, thus making it biologically more acceptable than other acids. Citric acid is effective in altering the hydroxyapatite solubility; it has been used in several concentrations, from 0.6 up to 50% by weight. Its effect is very fast and it only requires five seconds to apply a 6% solution over the enamel to remove the undesired dental covering.
This action is favorably strengthened when citric acid (C6O7H8) is included in the composition at the approximate 6% (weight percent) level. (Tables 1 and 2). […]

For assay [2] the following is noted: 6% solution applied over the enamel; cited from earlier work.

Structures are written as SMILES.

Turning to `O=C(O)CC(O)(CC(=O)O)C(=O)O` [Citric acid, citric acid], in assay [1], the “time required after applying for dissolving the organic matter” value is “thirty seconds”. For the same molecule, the “time required to remove the undesired dental covering” value in assay [2] is listed as “five seconds”.
